Laboratory results published in EP0588608A2, “Tricyclic compounds and pharmaceutical compositions containing them” (KYOWA HAKKO KOGYO CO., LTD., priority 1992, dated 1994).

Key:
ACAT = ACAT inhibiting activity test using HepG2 cells; assay type: cell-based; settings: 10⁻⁶M test compound, human cultured cell line HepG2, [14C]-oleic acid incorporation into cholesterol ester; 1 µM
Method: The ACAT inhibiting activity test using cells of human cultured cell line HepG2 was carried out in accordance with the method of Goldstein et al as described in Methods Enzymology, 98, 241, 1983. 5 x 10⁵ cells/well of human cultured cell line HepG2 were pre-cultured in 5% LPDS (rabbit lipoprotein-deficient serum)-DMEM (Dulbecco Modified Eagle Medium) overnight, and the medium was changed for a fresh 5% LPDS-DMEM (1 mℓ/well). To the medium having the cells were added 3 µℓ, as a whole, of cholesterol and 25-OH-cholesterol as dissolved in ethanol (with the final concentration being 10 µg/mℓ and 5 µg/mℓ, respectively) and 10 µℓ of a test compound (shown in Table 3 below) as dissolved in methanol (with the final concentration being 10⁻⁶M). The cells were cultured for 4 hours. Then, 10 µℓ (0.42 µCi/0.1 µmol/well) of [¹⁴C]-oleic acid-BSA (bovine serum albumin) complex was added to the medium, and the cells were cultured for further 2 hours. After the cultured cells were washed, the lipid of the cells was extracted with 0.5 mℓ/well of hexane/isopropanol (3/2) containing [3H]-cholesterol oleic acid 2000 dpm. The extract was dried to a solid under reduced pressure and the solid was fractionated by silica gel thin layer chromatography using a developing solvent of petroleum ether/diethyl ether/acetic acid (170/30/1) whereupon the radioactivity of the spot of the cholesterol ester was measured with a liquid scintillation counter. Subtracting the radioactivity of the blank test to which cholesterol and 25-OH-cholesterol were not added from the radioactivity as measured above gives the radioactivity of the test compound. The ACAT inhibiting activity of the test compound was calculated from the following equation, based on the radioactivity of the control group as obtained in the same manner as above without using the test compound. ACAT Inhibition (%) = {[Radioactivity of Control Group) - (Radioactivity of Test Compound)]/(Radioactivity of Control Group)} x 100

male ddy strain mice = assay: Test for acute toxicity (minimum lethal dose, oral); assay type: in vivo; settings: orally administered, mortality observed seven days after administration
Method: Groups of 3 male ddy strain mice weighing 20±1g were used. The test compounds were orally administered. Seven days after administration, the mortality was observed and the minimum lethal dose (MLD) was determined.

Structure (SMILES) | Percentage of ACAT Inhibition (ACAT) [%] | Acute Toxicity (MLD) (male ddy strain mice) [mg/kg]
Cc1ccc2c(c1)C(CNC(=O)Nc1c(C(C)C)cccc1C(C)C)c1ccccc1CO2 (centres unmarked) [Compound 1, N-(2,6-diisopropylphenyl)-N'-(2-methyl-6,11-dihydrodibenz[b,e]oxepin-11-ylmethyl)urea] | 99 | 
Cc1cc2c(c(C)c1Br)C(CNC(=O)Nc1c(C(C)C)cccc1C(C)C)c1ccccc1CO2 (centres unmarked) [Compound 3, N-(2,6-diisopropylphenyl)-N'-(2-bromo-1,3-dimethyl-6,11-dihydrobenz[b,e]oxepin-11-ylmethyl)urea] | 97 | 
CC(C)c1cccc(C(C)C)c1NC(=O)NC=C1c2ccccc2CCc2ccccc21 [Compound 5] | 94 | >300
CC(C)c1cccc(C(C)C)c1NC(=O)OCC1c2ccccc2COc2ccccc21 (centres unmarked) [Compound 6, (6,11-Dihydrodibenz[b,e]oxepin-11-ylmethyl)-(2,6-diisopropylphenyl)carbamate] | 40 | 
CC(C)c1cccc(C(C)C)c1NC(=O)NCC1c2ccccc2COc2ccc(Br)cc21 (centres unmarked) [Compound 2, N-(2,6-diisopropylphenyl)-N'-(2-bromo-6,11-dihydrodibenz[b,e]oxepin-11-ylmethyl)urea] | 98 | >300
CC(C)c1cccc(C(C)C)c1NC(=O)NC=C1c2ccccc2COc2ccccc21 [Compound 4] | 93 | 
